# Measured values: ChEMBL document CHEMBL6087398, “Natural phenol carbamates: Selective BuChE/FAAH dual inhibitors show neuroprotection in an Alzheimer's disease mouse model” (Eur J Med Chem, 2025)
# Calls of active or inactive are those of the source. No cut-off for these calls is given here.
# Tests used:
# [1] = biological target: Acetylcholinesterase (Electrophorus electricus) (UniProt O42275); assay: Inhibition of electric eel AChE using acetylthiocholine iodide as substrate preincubated with enzyme for 20 mins followed by substrate addition and measured after 20 mins by Ellman's method; parameters: concentration or dose not given beside the values; conditions: time 40.0 min
# [2] = biological target: Cholinesterase (Equus caballus, UniProt P81908); assay: Inhibition of equine BuChE using butyrylthiocholine iodide as substrate preincubated with enzyme for 20 mins followed by substrate addition and measured after 20 mins by Ellman's method
# [3] = biological target: T1, Fatty-acid amide hydrolase 1 (Homo sapiens, UniProt O00519); assay: Inhibition of human FAAH using arachidonoyl amide as substrate incubated for 30 mins by fluorescence-based cayman assay
# T1 sequence (O00519 whole entry): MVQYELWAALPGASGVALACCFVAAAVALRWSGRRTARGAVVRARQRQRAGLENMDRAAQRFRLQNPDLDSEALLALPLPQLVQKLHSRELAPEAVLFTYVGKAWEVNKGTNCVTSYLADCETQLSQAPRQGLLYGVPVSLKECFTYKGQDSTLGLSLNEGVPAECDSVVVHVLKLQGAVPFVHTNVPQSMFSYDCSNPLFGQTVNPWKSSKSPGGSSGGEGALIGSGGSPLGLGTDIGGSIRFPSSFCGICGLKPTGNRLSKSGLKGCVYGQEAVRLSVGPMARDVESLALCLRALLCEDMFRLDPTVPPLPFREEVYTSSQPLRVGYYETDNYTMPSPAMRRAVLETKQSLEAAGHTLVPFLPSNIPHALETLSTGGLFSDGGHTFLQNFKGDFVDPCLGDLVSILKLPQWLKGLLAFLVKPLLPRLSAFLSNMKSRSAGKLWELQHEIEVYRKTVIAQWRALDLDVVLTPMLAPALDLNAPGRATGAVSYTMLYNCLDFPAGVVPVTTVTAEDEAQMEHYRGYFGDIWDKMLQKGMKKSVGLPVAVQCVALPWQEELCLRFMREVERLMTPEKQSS
# [4] = biological target: T2, Cholinesterase (Homo sapiens, UniProt P06276); assay: Inhibition of human BuChE using butyrylthiocholine iodide as substrate incubated for 5 mins
# [5] = biological target: Acetylcholinesterase (Homo sapiens) (UniProt P22303); assay: Inhibition of recombinant human AChE using acetylthiocholine iodide as substrate incubated for 5 mins relative to control
# [6] = biological target: Acetylcholinesterase (Electrophorus electricus) (UniProt O42275); assay: Inhibition of electric eel AChE using acetylthiocholine iodide as substrate preincubated with enzyme for 20 mins followed by substrate addition and measured after 20 mins by Ellman's method relative to control; parameters: concentration or dose not given beside the values; conditions: time 40.0 min
# [7] = system: L02; assay: Cytotoxicity against human L02 cells assessed as reduction in cell viability at 12.5 uM incubated for 24 hrs by MTT assay; format: toxicity, cell-based; conditions: l02, 24 h
# [8] = system: PC-12; assay: Neuroprotective activity against H2O2 induced rat PC12 cells assessed as increase in cell viability at 50 uM measured after 24 hrs by MTT assay relative to control; format: functional
# [9] = system: L02; assay: Cytotoxicity against human L02 cells assessed as reduction in cell viability at 50 uM incubated for 24 hrs by MTT assay; format: toxicity, cell-based; conditions: l02, 24 h
# [10] = biological target: T2, Cholinesterase; assay: Binding affinity to human BuChE (unknown origin) assessed as carbamolyation rate at 0.025 to 100 uM incubated for 60 mins; conditions: dose 0.025-100 µM
# [11] = system: PC-12; assay: Neuroprotective activity against H2O2 induced rat PC12 cells assessed as cell viability measured after 24 hrs by MTT assay; format: functional, cell-based; conditions: dose 6.25-50 µM
# [12] = biological target: T2, Cholinesterase; assay: Binding affinity to human BuChE (unknown origin) assessed as decarbamolyation rate at 0.025 to 100 uM incubated for 60 mins; conditions: dose 0.025-100 µM
# [13] = in vitro; conditions: PAMPA, pH 7.4
# Description: Permeability of the compound in PBS at pH 7.4 incubated for 18 hrs by PAMPA-BBB assay
# [14] = biological target: T2, Cholinesterase; assay: Binding affinity to human BuChE (unknown origin) assessed as equilibrium dissociation constant at 0.025 to 100 uM incubated for 60 mins
# [15] = biological target: T2, Cholinesterase; assay: Binding affinity to human BuChE (unknown origin) assessed as overall carbamolyation rate at 0.025 to 100 uM incubated for 60 mins
# [16] = system: L02; assay: Cytotoxicity against human L02 cells assessed as reduction in cell viability at 25 uM incubated for 24 hrs by MTT assay; format: toxicity, cell-based; conditions: l02, 24 h
# Cholinesterase (Equus caballus, UniProt P81908), sequence (P81908 whole entry): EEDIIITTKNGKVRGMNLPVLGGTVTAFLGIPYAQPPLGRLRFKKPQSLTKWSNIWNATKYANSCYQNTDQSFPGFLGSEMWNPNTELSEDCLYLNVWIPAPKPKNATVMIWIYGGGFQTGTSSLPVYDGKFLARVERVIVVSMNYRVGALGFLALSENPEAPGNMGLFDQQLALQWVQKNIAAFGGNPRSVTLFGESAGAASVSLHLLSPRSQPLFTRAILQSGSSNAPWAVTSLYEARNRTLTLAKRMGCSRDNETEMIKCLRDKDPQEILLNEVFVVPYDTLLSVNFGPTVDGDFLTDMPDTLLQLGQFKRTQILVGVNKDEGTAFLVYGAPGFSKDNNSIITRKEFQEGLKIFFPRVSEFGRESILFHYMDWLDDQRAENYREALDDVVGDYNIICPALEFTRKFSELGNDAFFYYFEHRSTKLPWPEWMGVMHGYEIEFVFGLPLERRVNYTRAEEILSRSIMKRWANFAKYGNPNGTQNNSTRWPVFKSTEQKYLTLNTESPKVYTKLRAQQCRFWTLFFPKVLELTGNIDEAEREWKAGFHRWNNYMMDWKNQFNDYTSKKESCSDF
# Acetylcholinesterase (Electrophorus electricus), sequence (O42275 24-633 limits assumed): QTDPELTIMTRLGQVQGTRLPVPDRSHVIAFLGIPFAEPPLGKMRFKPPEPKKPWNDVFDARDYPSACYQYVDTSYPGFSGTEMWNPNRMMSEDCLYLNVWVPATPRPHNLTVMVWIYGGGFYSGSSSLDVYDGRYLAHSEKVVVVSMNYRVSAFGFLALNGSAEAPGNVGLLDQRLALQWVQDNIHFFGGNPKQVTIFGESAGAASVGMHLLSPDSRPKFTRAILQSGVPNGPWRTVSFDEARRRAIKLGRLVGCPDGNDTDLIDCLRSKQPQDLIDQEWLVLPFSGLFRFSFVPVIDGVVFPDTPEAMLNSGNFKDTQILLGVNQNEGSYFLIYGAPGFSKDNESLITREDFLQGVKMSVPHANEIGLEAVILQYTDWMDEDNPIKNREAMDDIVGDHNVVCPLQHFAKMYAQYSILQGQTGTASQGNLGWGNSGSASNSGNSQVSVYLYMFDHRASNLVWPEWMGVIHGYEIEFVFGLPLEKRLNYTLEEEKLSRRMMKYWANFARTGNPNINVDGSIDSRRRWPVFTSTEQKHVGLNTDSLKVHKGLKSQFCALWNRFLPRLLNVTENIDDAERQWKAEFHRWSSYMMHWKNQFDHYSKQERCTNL
# Acetylcholinesterase (Homo sapiens), sequence (P22303 whole entry): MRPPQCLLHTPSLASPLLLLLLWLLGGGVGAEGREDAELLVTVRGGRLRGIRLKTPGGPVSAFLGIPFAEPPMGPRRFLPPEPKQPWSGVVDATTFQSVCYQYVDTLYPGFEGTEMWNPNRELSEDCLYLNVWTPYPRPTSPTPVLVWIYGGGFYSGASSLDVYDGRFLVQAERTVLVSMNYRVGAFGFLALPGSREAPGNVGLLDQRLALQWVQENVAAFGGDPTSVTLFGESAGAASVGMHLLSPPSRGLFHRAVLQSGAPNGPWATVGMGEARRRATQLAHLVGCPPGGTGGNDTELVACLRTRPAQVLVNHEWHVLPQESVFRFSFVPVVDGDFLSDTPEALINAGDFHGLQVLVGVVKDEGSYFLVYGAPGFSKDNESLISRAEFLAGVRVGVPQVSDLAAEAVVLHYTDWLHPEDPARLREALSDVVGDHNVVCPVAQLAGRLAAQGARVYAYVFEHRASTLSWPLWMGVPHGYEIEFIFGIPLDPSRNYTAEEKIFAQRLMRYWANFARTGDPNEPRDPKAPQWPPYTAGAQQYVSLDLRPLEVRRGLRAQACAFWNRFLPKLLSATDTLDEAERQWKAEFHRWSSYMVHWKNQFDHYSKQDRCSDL
# T2 sequence (P06276 whole entry): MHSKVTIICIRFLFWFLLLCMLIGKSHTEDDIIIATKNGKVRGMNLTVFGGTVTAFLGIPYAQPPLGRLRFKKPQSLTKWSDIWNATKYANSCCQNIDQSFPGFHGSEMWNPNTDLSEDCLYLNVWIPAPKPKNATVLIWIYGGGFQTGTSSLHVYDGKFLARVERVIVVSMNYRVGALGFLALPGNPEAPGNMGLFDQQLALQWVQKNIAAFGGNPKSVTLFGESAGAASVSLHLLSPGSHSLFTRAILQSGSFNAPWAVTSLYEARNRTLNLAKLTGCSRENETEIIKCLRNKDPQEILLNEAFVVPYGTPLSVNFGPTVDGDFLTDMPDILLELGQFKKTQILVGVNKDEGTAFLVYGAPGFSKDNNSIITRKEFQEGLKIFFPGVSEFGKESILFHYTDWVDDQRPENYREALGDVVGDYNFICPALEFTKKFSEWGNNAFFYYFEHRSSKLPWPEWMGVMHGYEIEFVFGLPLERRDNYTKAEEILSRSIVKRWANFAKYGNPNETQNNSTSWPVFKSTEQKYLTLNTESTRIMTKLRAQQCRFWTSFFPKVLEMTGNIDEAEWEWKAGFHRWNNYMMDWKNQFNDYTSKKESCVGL
Structure (SMILES),inhibition [1],IC50 [2],other results
COc1ccc(C(C)=O)c(OC(=O)N(C)Cc2ccc(Br)cc2)c1,34%,2.81 µM,–
CCN(C)C(=O)Oc1cc(OC)ccc1C(C)=O,1.7%,3.68 µM,–
CNC(=O)Oc1cc(C(C)C)ccc1C,56%,2.96 µM,–
Cc1ccc(C(C)C)cc1OC(=O)N(C)Cc1cccc(Cl)c1,36%,1.13 µM,–
COc1ccc(C(C)=O)c(OC(=O)N(C)Cc2ccc(Cl)cc2)c1,5.8%,0.057 µM,IC50 [3]: 16.6 µM; IC50 [4]: 0.089 µM; inhibition [5]: inactive
COc1ccc(C(C)=O)c(OC(=O)N(C)Cc2cccc(F)c2)c1,20%,0.4 µM,–
COc1ccc(C(C)=O)c(OC(=O)N(C)Cc2ccccc2F)c1,inactive,0.94 µM,–
Cc1ccc(C(C)C)cc1OC(=O)N(C)Cc1ccc(Br)cc1,32%,1.96 µM,–
COc1ccc(C(C)=O)c(OC(=O)N2CCC(Cc3ccccc3)CC2)c1,43%,0.31 µM,–
COc1ccc(C(C)=O)c(OC(=O)N(C)Cc2ccccc2)c1,6.6%,0.19 µM,–
C=CCc1ccc(OC(=O)N(C)Cc2cccc(Br)c2)c(OC)c1,17%,–,inhibition [6]: 67%
C=CCc1ccc(OC(=O)N(C)CC)c(OC)c1,69%,–,inhibition [6]: 74%
COc1ccc(C(C)=O)c(OC(=O)N2CCCC2)c1,21%,1.93 µM,–
COc1cc2c(cc1OC)C(=O)C(CC1CCN(Cc3ccccc3)CC1)C2 (centres undefined) [DONEPEZIL],–,–,Activity [7]: Non-toxic; Activity [8]: 43%; Activity [9]: 83.4%
CNC(=O)Oc1cc(OC)ccc1C(C)=O,23%,2.54 µM,–
C=CCc1ccc(OC(=O)N2CCCC2)c(OC)c1,inactive,2 µM,–
COc1ccc(C(C)=O)c(OC(=O)N(C)Cc2cccc(Br)c2)c1,inactive,3.41 µM,–
O=C(Oc1ccc([N+](=O)[O-])cc1)N1CCN(Cc2cccc(Oc3ccccc3)c2)CC1,–,–,IC50 [3]: 0.011 µM
Cc1ccc(C(C)C)cc1OC(=O)N1CCCC1,inactive,0.68 µM,–

Structure (SMILES),inhibition [1],IC50 [2],other results
C=CCc1ccc(OC(=O)NC)c(OC)c1,42%,–,inhibition [6]: 53%
COc1ccc(C(C)=O)c(OC(=O)N(C)C)c1,8.3%,1.64 µM,–
C=CCc1ccc(OC(=O)N(C)Cc2ccccc2)c(OC)c1,25%,–,inhibition [6]: inactive
COc1ccc(C(C)=O)c(OC(=O)N2CCSC2)c1,44%,0.64 µM,–
CCN(Cc1ccc(Cl)cc1)C(=O)Oc1cc(OC)ccc1C(C)=O,inactive,0.42 µM,–
C=CCc1ccc(OC(=O)N(C)Cc2ccc(Br)cc2)c(OC)c1,inactive,–,inhibition [6]: 57%
Cc1ccc(C(C)C)cc1OC(=O)N(C)Cc1cccc(Br)c1,37%,3.81 µM,–
COc1ccc(C(C)=O)c(OC(=O)N2CCC(C)CC2)c1,33%,0.08 µM,IC50 [3]: 28.4 µM; IC50 [4]: 1.93 µM; inhibition [5]: 23%
COc1ccc(C(C)=O)c(OC(=O)N2CCc3cc(OC)c(OC)cc3C2)c1,inactive,3.52 µM,–
CCN(C)C(=O)Oc1cc(C(C)C)ccc1C,inactive,0.78 µM,–
Cc1ccc(C(C)C)cc1OC(=O)N(C)C,62%,0.59 µM,–
COc1ccc(C(C)=O)c(OC(=O)N2CCCCC2)c1,6.9%,0.006 µM,Activity [7]: Non-toxic; K [10]: 0.41 min⁻¹; Activity [11]: Dose-dependent-effect; K [12]: 0.024 min⁻¹; IC50 [3]: 8.02 µM; Papp at 18 h [13]: 17.5 ×10⁻⁶ cm/s; Activity [8]: 42%; Kd [14]: 0.3 µM; Activity [9]: 81.4%; IC50 [4]: 0.113 µM; inhibition [5]: inactive; Ki [15]: 0.31 10^-3/uM/min; Activity [16]: 81.6%
Cc1ccc(C(C)C)cc1OC(=O)N1CCCCC1,–,0.03 µM,–
C=CCc1ccc(OC(=O)N(C)C)c(OC)c1,inactive,–,inhibition [6]: 69%
COc1ccc(C(C)=O)c(OC(=O)N2CCc3ccccc3C2)c1,27%,11.5 µM,–
C=CCc1ccc(OC(=O)N2CCc3ccccc3C2)c(OC)c1,65%,–,inhibition [6]: 23%
C=CCc1ccc(OC(=O)N2CCCCC2)c(OC)c1,42%,0.31 µM,–
CCN(C)C(=O)Oc1cccc([C@H](C)N(C)C)c1 [RIVASTIGMINE],–,–,IC50 [3]: 14 µM; inhibition [5]: 4.65%
COc1ccc(C(C)=O)c(OC(=O)Nc2ccc(Cl)cc2)c1,4.6%,1.27 µM,–
